Key:
[1] = Solid stability of compositions 1-11 and compounds 1A-11A: main component content over time under different conditions (Example 37, Table 32); type: physicochemical
Description: Compositions 1-11 and compounds 1A-11A were placed at environments of −25° C., 5±3° C., 25±2° C./60±5% RH, 40±2° C./75±5% RH, 60° C. for 0 d, 5 d and 10 d (d refers to day), respectively, and changes of the main component content (the main component content of 0 day was converted to 100%) were measured, the results are shown in Table 32.

[2] = Acute toxicity in beagles (Example 16); type: in vivo; conditions: both sexes, beagle, dog, in vivo, 2 g/kg, single intravenous injection, read-out: dog MTD, injected
Source text: (§1) Ordinary grade beagles 8˜10 kg, 70 males and 70 females, were divided into 7 groups, 10 males and 10 females in each group. Beagles in group 1 were intravenous injected with 2 g/kg of D3; beagles in group 2 were intravenous injected with 2 g/kg of composition 3; beagles in group 3 were intravenous injected with 2 g/kg of composition 3-powder injection; beagles in group 4 were orally administrated with 5 g/kg of composition 3-enteric-coated granule; beagles in group 5 were orally administrated with 5 g/kg of composition 3-enteric-coated capsule; beagles in group 6 were orally administrated with 5 g/kg of composition 3-enteric-coated sustained-release capsule; group 7 was a blank group. After administration, the poisoning situation was observed every day, and no obvious poisoning reaction was found.

beagles = experiment: Acute toxicity in beagles (Example 16); type: in vivo; conditions: intravenous 2 g/kg, observed 14 days
Source text: as §1

[3] = Compatibility stability and pH of 2 mg/ml solutions in normal saline and 5% glucose injection at room temperature (Example 15); type: physicochemical; conditions: for main component content in solution: 2 mg/ml, room temperature
[4] = Solid stability: main component content over time under storage conditions (Example 15); type: physicochemical
[5] = Acute toxicity in SD rats (Example 16); type: in vivo; conditions: both sexes, rat, in vivo, 3 g/kg, single intravenous injection, read-out: rat MTD, injected
Source text: (§2) SPF-grade SD rats, 180˜220 g, 70 males and 70 females, were divided into 7 groups, 10 males and 10 females in each group. Rats in group 1 were intravenous injected with 3 g/kg of D3; rats in group 2 were intravenous injected with 3 g/kg of composition 3; rats in group 3 were intravenous injected with 3 g/kg of composition 3-powder injection; rats in group 4 were orally administrated with 5 g/kg of composition 3-enteric-coated granule; rats in group 5 were orally administrated with 5 g/kg of composition 3-enteric-coated capsule; rats in group 6 were orally administrated with 5 g/kg of composition 3-enteric-coated sustained-release capsule; group 7 was a blank group. After administration, the poisoning situation was observed every day, and no obvious poisoning reaction was found.

SD rats = experiment: Acute toxicity in SD rats (Example 16); type: in vivo; conditions: intravenous 3 g/kg, observed 14 days
Source text: as §2

[6] = system: chronic cadmium poisoning model rabbits; experiment: Cadmium-removing effect by intravenous drip in chronic cadmium poisoning rabbits (Example 18); type: in vivo, New Zealand rabbits; conditions: for Urine β2-microglobulin values: after four weeks of administration
Source text: 205 male New Zealand rabbits, 1.8˜2.2 kg, were randomly divided into a blank control group with 25 rabbits and chronic cadmium poisoning groups with a total of 180 rabbits. The model rabbits were ear margin intravenous injected with a mixed solution containing 1.5 μmol/kg CdCl2 and 30 μmol/kg thioethanol (ME) according to weight, once/d for continuous 5 days, and observed for 35 days. After 35 days, qualified rabbits were selected according to weight, including 18 rabbits in the blank group and 162 rabbits in the poisoning group. The 162 rabbits in the poisoning group were randomly divided into a model group, D3 high-dose group, D3 low-dose group, compound 3B high-dose group, compound 3B low-dose group, composition 3 high-dose group, composition 3 low-dose group, composition 3-powder injection high-dose group, composition 3-powder injection low-dose group, with 18 rabbits in each group. Rabbits in the mode group and the blank group were administered by intravenous drip with the same volume of normal saline, with a rate of 30 drops/min for a dripping time of about 2 h, 1 time/d, 5 d/week. After administration on the last day of week 1, week 2 and week 4, the urine of 0 h˜6 h and the urine of 7 h˜24 h of rabbits were respectively collected; the content of cadmium in blood, urine and kidney, and the cadmium-removing rate from blood and kidney were determined, and the results are shown in Table 6.

[7] = 1 w of treatment, high-dose group (D3 433, composition 3 and composition 3-preparation 108 mg/kg)
[8] = 1 w of treatment, high-dose group (D3 433, compound 3B 83.5, composition 3 and composition 3-preparation 108 mg/kg)
[9] = 1 w of treatment, low-dose group (D3 108, composition 3 and composition 3-preparation 27 mg/kg)
[10] = 1 w of treatment, low-dose group (D3 108, compound 3B 21, composition 3 and composition 3-preparation 27 mg/kg)
[11] = 2 w of treatment, high-dose group (D3 433, composition 3 and composition 3-preparation 108 mg/kg)
[12] = 2 w of treatment, high-dose group (D3 433, compound 3B 83.5, composition 3 and composition 3-preparation 108 mg/kg)
[13] = 2 w of treatment, low-dose group (D3 108, composition 3 and composition 3-preparation 27 mg/kg)
[14] = 2 w of treatment, low-dose group (D3 108, compound 3B 21, composition 3 and composition 3-preparation 27 mg/kg)
[15] = 4 w of treatment, high-dose group (D3 433, composition 3 and composition 3-preparation 108 mg/kg)
[16] = 4 w of treatment, high-dose group (D3 433, compound 3B 83.5, composition 3 and composition 3-preparation 108 mg/kg)
[17] = 4 w of treatment, low-dose group (D3 108, composition 3 and composition 3-preparation 27 mg/kg)
[18] = 4 w of treatment, low-dose group (D3 108, compound 3B 21, composition 3 and composition 3-preparation 27 mg/kg)

CSCCC(C(=O)[O-])N(CC(O)C(O)C(O)C(O)CO)C(=S)[S][Na].[Na+] [Composition D3, N-(2,3,4,5,6-pentahydroxyhexyl)-(N-disubstitutedsodium formate)-L-sodium methionate]
main component content ([1]; 5 ± 3° C., 0 d (0 day content converted to 100%)): 100%
main component content ([1]; 5 ± 3° C., 5 d): 97.3%
main component content ([1]; 5 ± 3° C., 10 d): 96.5%
main component content ([1]; 25 ± 2° C./60 ± 5% RH, 0 d (0 day content converted to 100%)): 100%
main component content ([1]; 25 ± 2° C./60 ± 5% RH, 5 d): 95.1%
main component content ([1]; 25 ± 2° C./60 ± 5% RH, 10 d): 90.3%
main component content ([1]; 40 ± 2° C./75 ± 5% RH, 0 d (0 day content converted to 100%)): 100%
main component content ([1]; 40 ± 2° C./75 ± 5% RH, 5 d): 91.2%
main component content ([1]; 40 ± 2° C./75 ± 5% RH, 10 d): 84.2%
main component content ([1]; 60° C., 0 d (0 day content converted to 100%)): 100%
main component content ([1]; 60° C., 5 d): 65.6%
main component content ([1]; 60° C., 10 d): 64.2%
main component content ([1]; −25° C., 0 d (0 day content converted to 100%)): 100%
main component content ([1]; −25° C., 5 d): 101.2%
main component content ([1]; −25° C., 10 d): 99.8%
MTD at 14 d [2]: > 2000 mg/kg
acute toxicity observation (beagles): no obvious toxicity
pH ([3]; 2 mg/ml solution in 5% glucose injection): 9.7
pH ([3]; 2 mg/ml solution in normal saline): 9.7
main component content in solution ([3]; 5% glucose injection, 0 h (converted to 100%)): 100%
main component content in solution ([3]; 5% glucose injection, 1 h): 90%
main component content in solution ([3]; 5% glucose injection, 2 h): 81%
main component content in solution ([3]; 5% glucose injection, 4 h): 69%
main component content in solution ([3]; 5% glucose injection, 8 h): 54%
main component content in solution ([3]; normal saline, 0 h (converted to 100%)): 100%
main component content in solution ([3]; normal saline, 1 h): 95%
main component content in solution ([3]; normal saline, 2 h): 83%
main component content in solution ([3]; normal saline, 4 h): 73%
main component content in solution ([3]; normal saline, 8 h): 71%
main component content ([4]; 5 ± 3° C., 0 d (converted to 100%)): 100%
main component content ([4]; 5 ± 3° C., 5 d): 97.3%
main component content ([4]; 5 ± 3° C., 10 d): 96.5%
main component content ([4]; 5 ± 3° C., 30 d): 90.8%
decrease of the main component content / stability on 180 d ([4]; 5±3° C., 180 d): about 18.8%
main component content ([4]; 5±3° C., 180 d): 81.2%
main component content ([4]; 25 ± 2° C./60 ± 5% RH, 0 d (converted to 100%)): 100%
main component content ([4]; 25 ± 2° C./60 ± 5% RH, 5 d): 95.1%
main component content ([4]; 25 ± 2° C./60 ± 5% RH, 10 d): 90.3%
main component content ([4]; 25 ± 2° C./60 ± 5% RH, 30 d): 84.6%
main component content ([4]; 25 ± 2° C./60 ± 5% RH, 180 d): 64.2%
main component content ([4]; 40 ± 2° C./75 ± 5% RH, 0 d (converted to 100%)): 100%
main component content ([4]; 40 ± 2° C./75 ± 5% RH, 5 d): 91.2%
main component content ([4]; 40 ± 2° C./75 ± 5% RH, 10 d): 84.3%
main component content ([4]; 40 ± 2° C./75 ± 5% RH, 30 d): 60.3%
main component content ([4]; −25° C., 0 d (converted to 100%)): 100%
main component content ([4]; −25° C., 5 d): 101.2%
main component content ([4]; −25° C., 10 d): 99.8%
main component content ([4]; −25° C., 30 d): 100.7%
main component content ([4]; −25° C., 180 d): 99.9%
MTD at 14 d [5]: > 3000 mg/kg
acute toxicity observation (SD rats): no obvious toxicity
Removing rate (cadmium in blood) [6, 7]: 13.9%
Removing rate (cadmium in kidney) [6, 7]: 47.8%
Cadmium in blood [6, 8]: 89.45 ± 13.31 µg/L
Cadmium in kidney [6, 8]: 6.53 ± 2.16 µg/L
Removing rate (cadmium in blood) [6, 9]: 6.8%
Removing rate (cadmium in kidney) [6, 9]: 39.7%
Cadmium in blood [6, 10]: 96.60 ± 6.31 µg/L
Cadmium in kidney [6, 10]: 7.42 ± 3.83 µg/L
Removing rate (cadmium in blood) [6, 11]: 16.9%
Removing rate (cadmium in kidney) [6, 11]: 77.0%
Cadmium in blood [6, 12]: 61.39 ± 12.47 µg/L
Cadmium in kidney [6, 12]: 3.36 ± 1.08 µg/L
Removing rate (cadmium in blood) [6, 13]: 0.07%
Removing rate (cadmium in kidney) [6, 13]: 54.0%
Cadmium in blood [6, 14]: 68.54 ± 13.39 µg/L
Cadmium in kidney [6, 14]: 5.92 ± 2.01 µg/L
Removing rate (cadmium in blood) [6, 15]: 35.8%
Removing rate (cadmium in kidney) [6, 15]: 91.7%
Cadmium in blood [6, 16]: 17.67 ± 6.84 µg/L
Cadmium in kidney [6, 16]: 1.85 ± 0.52 µg/L
Removing rate (cadmium in blood) [6, 17]: 11.1%
Removing rate (cadmium in kidney) [6, 17]: 75.8%
Cadmium in blood [6, 18]: 24.34 ± 8.38 µg/L
Cadmium in kidney [6, 18]: 3.93 ± 1.16 µg/L
Urine β2-microglobulin values ([6]; high-dose group (D3 433, compound 3B 83.5, composition 3 and composition 3-preparation 108 mg/kg)): 161.64 ± 45.18 ng/L
Urine β2-microglobulin values ([6]; low-dose group (D3 108, compound 3B 21, composition 3 and composition 3-preparation 27 mg/kg)): 197.15 ± 31.66 ng/L
